Source: patent US10206897B2 (Board of Regents of the University of Nebraska, priority 2000, dated 2019)
Read-outs that look alike come from different tables or passages of the source.

Assays:
[1] = of the administered dose; cited from earlier work
[2] = gastric pH range of 1-2; cited from earlier work
[3] = test system: inflammatory responses produced by carrageenan, 5-hydroxytryptamine, nystatin and formaldehyde; conditions: oral; cited from earlier work
[4] = partition coefficient
[5] = target: cyclooxygenase 1 (Homo sapiens, UniProt P23219); assay: direct inhibition of cyclooxygenase 1; conditions: at concentrations used in the current study
cyclooxygenase 1, sequence (P23219 24-599, species assumed): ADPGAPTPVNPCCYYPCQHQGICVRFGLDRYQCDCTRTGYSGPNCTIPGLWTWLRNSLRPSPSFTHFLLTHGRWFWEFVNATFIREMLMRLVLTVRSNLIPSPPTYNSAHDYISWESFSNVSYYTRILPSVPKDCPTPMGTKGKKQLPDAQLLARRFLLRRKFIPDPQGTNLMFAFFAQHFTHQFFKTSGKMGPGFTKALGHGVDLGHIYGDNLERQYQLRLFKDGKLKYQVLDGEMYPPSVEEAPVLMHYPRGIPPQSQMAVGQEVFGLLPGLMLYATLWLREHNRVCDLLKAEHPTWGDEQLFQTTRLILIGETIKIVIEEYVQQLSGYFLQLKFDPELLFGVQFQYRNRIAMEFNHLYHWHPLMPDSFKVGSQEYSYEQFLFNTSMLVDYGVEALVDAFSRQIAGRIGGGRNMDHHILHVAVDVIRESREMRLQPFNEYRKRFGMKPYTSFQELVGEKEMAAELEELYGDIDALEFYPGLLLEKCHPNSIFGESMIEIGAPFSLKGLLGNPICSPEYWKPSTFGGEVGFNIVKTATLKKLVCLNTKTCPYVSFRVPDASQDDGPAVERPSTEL

[6] = target: T1, cyclooxygenase 2 (Homo sapiens, UniProt P35354); assay: direct inhibition of cyclooxygenase 2; conditions: at concentrations used in the current study
T1 sequence (P35354 18-604): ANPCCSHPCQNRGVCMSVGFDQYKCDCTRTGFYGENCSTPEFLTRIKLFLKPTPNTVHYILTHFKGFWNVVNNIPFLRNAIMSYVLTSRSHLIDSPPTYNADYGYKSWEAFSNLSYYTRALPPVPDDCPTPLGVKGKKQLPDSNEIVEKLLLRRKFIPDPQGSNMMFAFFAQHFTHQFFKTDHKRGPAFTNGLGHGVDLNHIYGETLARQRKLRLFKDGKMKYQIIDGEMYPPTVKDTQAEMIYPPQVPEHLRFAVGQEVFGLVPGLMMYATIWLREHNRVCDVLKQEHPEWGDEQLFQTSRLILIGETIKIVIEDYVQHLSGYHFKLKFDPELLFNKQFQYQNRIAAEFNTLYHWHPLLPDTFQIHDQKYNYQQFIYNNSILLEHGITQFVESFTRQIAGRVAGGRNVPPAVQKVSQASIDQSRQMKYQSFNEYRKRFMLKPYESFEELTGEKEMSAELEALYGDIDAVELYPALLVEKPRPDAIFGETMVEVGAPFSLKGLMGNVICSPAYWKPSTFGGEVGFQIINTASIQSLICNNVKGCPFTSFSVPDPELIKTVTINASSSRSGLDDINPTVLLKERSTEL

[7] = test system: brain microvessel endothelial cells (BMEC); assay: prostaglandin E2 release from BMEC monolayers exposed to bacterial lipopolysaccharide; type: cell-based
Excerpt: In an exemplary study primary cultured brain microvessel endothelial cells (BMEC) were used as an in vitro cell culture model to examine inflammation. These cells have been used previously to examine the effects of the inflammatory mediators such as tumor necrosis factor (TNF), and bacterial lipopolysaccharide (LPS). See Mark, K. S. and Miller, D. W. increased Permeability of Prim my Cultured Brain Microvessel Endothelial Cell Monolayers Following Tumor Necrosis Factor-Alpha Exposure. Life Sci. 64: 1941-1953, 1999, which is herein incorporated by reference in its entirety. See also Mark, K. S., Trickier, W. J., and Miller, D. W. Role of Cyclooxygenase-2 and Prostaglandins in the TNF-a Induced Changes in Brain Microvessel Endothelial Cell Permeability. J. Pharmacol. Exp. Ther. 297: I 051-1058, 200 I, which is herein incorporated by reference in its entirety. See also McGuire, T. R., Hoie, E., Trickier, […]., and Miller, D. W. Release of Prostaglandin E-2 in Bovine Brain Endothelial Cells After Exposure to Three Unique Forms of the Antifuingal Drug Amphotericin: Role of COX-2 in Amphotericin-Induced Fever. Life Sci. (accepted for publication), which is herein incorporated by reference in its entirety. These studies indicate that following exposure to either tumor necrosis factor (TNF) or bacterial lipopolysaccharide (LPS), there is an increased expression of cyclooxygenase 2 (COX 2). […] Treatment with bacterial lipopolysaccharide (LPS) alone caused significant increases in prostaglandin E2 (PGE2) release from the cells over the 12 hour exposure period (approximately 1a-fold increase over control).

[8] = test system: MDCK monolayers; assay: permeability (flux) across MDCK monolayers; conditions: over one hour
[9] = test system: C2Cl2 Muscle Cells; assay: accumulation (loading) of creatine in C2Cl2 muscle cells; type: cell-based, mouse; conditions: 3.2 mg/ml, up to 1 hour at 37 C
Excerpt: (§1) Over this time period it was observed that here is a significant, approximately two-fold, increase in the “loading” of CEE in the muscle cells versus CM loading. FIGS. 13 through 15 exemplify the effects of this increased loading of CEE in the C2Cl2 cells under normal and hypoxic conditions. FIGS. 13 through 15 illustrate the results of studies of lactic acid levels in and lactic acid release from C2Cl2 muscle cells. […] The results were gathered over a six hour period of time.

[10] = test system: C2Cl2 Muscle Cells; assay: lactic acid levels in and release from C2Cl2 muscle cells under normal and hypoxic conditions; type: cell-based, mouse; conditions: 100 uM, six hour period
Excerpt: as §1

[11] = test system: MDCK monolayers; conditions: dog, 1 h

In the case of CN(CC(=O)O)C(=N)N [creatine], the “total estimated oral absorption” value [1] is listed as ≤ 14%, the creatinine/creatine ratio [2] is listed as “greater than or equal to 30” and the “suppression of experimentally induced inflammatory responses” value [3] is listed as “orally effective”. For the same compound, the Partition [4] was 0.015 +/− 0.007, the “direct inhibition of cyclooxygenase 1” value [5] was “does not inhibit” and the “direct inhibition of cyclooxygenase 2” value [6] was “does not inhibit”.
With CN(CC(=O)O)C(=N)N [creatine monohydrate] the “magnitude of PGE2 response compared with indomethacin (10 μM)” value ([7]; 1000 μM) was “similar”, the “concentration giving maximal reduction in PGE2 release” value ([7]; LPS 20 ng/ml, 12 hour exposure) was “at least 1000 μM” and the “lowest concentration with reduction in PGE2 release” value ([7]; LPS 20 ng/ml, 12 hour exposure) was 100 µM. For the same compound, the “direct inhibition of cyclooxygenase 1” value ([5]; monohydrate) was “have not presently revealed an inhibition”, the “direct inhibition of cyclooxygenase 2” value ([6]; monohydrate) was “have not presently revealed an inhibition” and the “flux across MDCK monolayer” value [8] was “approximately 10%”.
For CCOC(=O)CN(C)C(=N)N.Cl [creatine ethyl ester hydrochloride, Creatine Ethyl Ester Hydrochloride], the “concentration giving maximal reduction in PGE2 release” value ([7]; LPS 20 ng/ml, 12 hour exposure) was 100 µM, the “lowest concentration with reduction in PGE2 release” value ([7]; LPS 20 ng/ml, 12 hour exposure) was 10 µM and the “effect on prostaglandin E2 (PGE2) release following LPS exposure” value ([7]; LPS 20 ng/ml, 12 hour exposure, co-administration) was “significantly reduced”.
With CCOC(=O)CN(C)C(=N)N [creatine ethyl ester] the “magnitude of PGE2 response compared with indomethacin (10 μM)” value ([7]; 100 μM) was “similar”, the “increase in loading in muscle cells versus CM loading” value [9] was “approximately two-fold” and the “cellular lactic acid levels” value [10] was “marked reduction”. For the same compound, the lactic acid release [10] was “marked reduction”, the “flux across MDCK monolayer” value [11] was “approximately 20%” and the “direct inhibition of cyclooxygenase 1” value [5] was “have not presently revealed an inhibition”. The “direct inhibition of cyclooxygenase 2” value [6] was “have not presently revealed an inhibition”.
